These are literature values, as cited in article PMC4257705 (Organic letters, 2009).

pKd: −log10 of the molar value.

The target in this series is αVβ3. The conditions noted are these: tripeptide sequence Arg-Gly-Asp (RGD).

For the substance Arg-Gly-Asp [RGD], the pKd was roughly 9.00.

Broadly, the pKd is the Kd on a negative log10 scale, so that one unit is a factor of ten.
